Laboratory results from PubChem BioAssay AID1159558 (GlaxoSmithKline (GSK), 2015).
Activity calls are given as the source filed them.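 The calls were made as follows: active = IC50 against T. cruzi CYP51 below a set limit; inactive = the rest.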

Target: Sterol 14-alpha demethylase (Trypanosoma cruzi (strain CL Brener)) (UniProt Q7Z1V1)
Experiment: TcCYP51 inhibitors, dose response, mechanism study for T. cruzi antiparasitic project, biochemical, recombinant enzyme (AID 1159558);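 also: enzyme in bacterial membranes with Anopheles gambiae CYP reductase and cytochrome b5 partners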
Conditions: recombinant T. cruzi CYP51, BOMCC fluorescence

Sequence of Sterol 14-alpha demethylase (Trypanosoma cruzi (strain CL Brener)) (Q7Z1V1 whole entry, looked up): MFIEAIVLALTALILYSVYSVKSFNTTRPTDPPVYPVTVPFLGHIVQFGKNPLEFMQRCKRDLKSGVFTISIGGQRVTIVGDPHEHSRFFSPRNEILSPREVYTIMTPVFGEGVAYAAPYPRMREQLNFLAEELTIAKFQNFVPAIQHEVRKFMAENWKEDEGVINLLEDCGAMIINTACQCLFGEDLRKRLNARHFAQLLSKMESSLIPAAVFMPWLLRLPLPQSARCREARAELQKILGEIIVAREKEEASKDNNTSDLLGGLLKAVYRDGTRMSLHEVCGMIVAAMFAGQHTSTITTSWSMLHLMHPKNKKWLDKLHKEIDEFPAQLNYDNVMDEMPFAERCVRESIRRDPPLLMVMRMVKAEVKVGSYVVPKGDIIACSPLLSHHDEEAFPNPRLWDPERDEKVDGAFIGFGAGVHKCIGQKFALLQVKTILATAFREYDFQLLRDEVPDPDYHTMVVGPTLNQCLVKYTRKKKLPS

IC50 | Structure (SMILES)
> 100 µM (inactive) | CC(C)(C)c1cc(NC2CC2)nc(-c2ccccn2)n1
6.3 µM | COc1cccc(NS(=O)(=O)c2ccc3[nH]cc(C(=O)NCCC(C)C)c(=O)c3c2)c1
> 100 µM (inactive) | Cc1cc(N(C)C)nc(Nc2ccccc2C)n1
25 µM | O=C(Nc1nc(-c2ccccn2)cs1)C1CCc2ccccc2C1 (stereo not given)
79 µM | NC(=O)c1cc(NC(=O)c2ccccc2COc2ccccc2)ccc1Cl
0.063 µM | O=C(c1cc2cc(Cl)ccc2[nH]1)N1CCCCC1c1cccnc1 (stereo not given)
> 100 µM (inactive) | CCN(CC)S(=O)(=O)c1ccc(C(=O)Nc2cc(C)nn2-c2nc(C)c(C)c(=O)[nH]2)cc1
16 µM | CC(C)S(=O)(=O)c1ccc(-c2cnc(N)c3cc(-c4ccnc(N)n4)ccc23)cc1
> 100 µM (inactive) | CC(=O)Nc1cccc(Nc2ncnc3nc[nH]c23)c1
> 100 µM (inactive) | O=c1ccc2ccc(F)c3c2n1C[C@H]3CN1CCN(CC(O)c2cc3c(cn2)OCS3)CC1 (stereo not given in full)
50 µM | CCCCn1nnnc1CSc1nc(C)cc(C)c1C#N
> 100 µM (inactive) | COc1ccc2c(Cl)c(C(=O)N3CCC3)sc2c1Cl
13 µM | O=C(CN1CCC2(O)CCCCC2C1c1ccc2c(c1)OCO2)Nc1ccc(Cl)cc1Cl (stereo not given)
10 µM | CCN(CC)c1nc(N(C)C)nc2c1CN(Cc1ccccc1)CC2
1 µM | COc1ccc2ncc(Cl)c(CCN3CC[C@@H](NCc4cc5c(cn4)OCS5)[C@H](O)C3)c2n1
40 µM | NS(=O)(=O)c1ccc(CNC(=O)c2ccc([N+](=O)[O-])s2)cc1
0.063 µM | Fc1ccccc1N1C[C@H]2CCN(c3cccnc3)C[C@H]2C1
> 100 µM (inactive) | CCC(CC)C(=O)Nc1cccc(C(=O)Nc2nnc(C3CCCCC3)s2)c1
40 µM | COc1ccc(NS(=O)(=O)c2cc(-c3cc(C)[nH]n3)ccc2C)cc1OC
1 µM | CCc1cccc(CC)c1-n1c(SCC(=O)NC(=O)NCc2ccco2)nnc1-c1cccnc1
> 100 µM (inactive) | O=C(Nc1ccccc1C(=O)Nc1ccccn1)c1ccco1

IC50 | Structure (SMILES)
25 µM | CC(c1ccc2c(c1)CCCC2)N(C)c1ncc2c(N)nc(N)nc2n1 (stereo not given)
> 100 µM (inactive) | Cc1ccc(C)c(-n2nnnc2Sc2nc([N+](=O)[O-])nn2C)c1
0.0079 µM | COc1ccc(C(C)(C)C)cc1S(=O)(=O)n1ccnc1
7.9 µM | Cc1cc(C)cc(NS(=O)(=O)c2cc(-c3cc(C)[nH]n3)ccc2C)c1
20 µM | Cc1cccc(Nc2nc(-c3ccccn3)cs2)n1
7.9 µM | Cc1ncsc1CNc1cnc(-c2ccc3c(c2)OCCO3)c(-c2cnn(C)c2)c1
> 100 µM (inactive) | COc1ccc(Cl)cc1CC(=O)Nc1n[nH]c(-c2ccccn2)n1
> 100 µM (inactive) | CC(C)C[C@H](NC(=O)c1ccc(-c2ccccc2)o1)C(=O)NC1(C#N)CC1
10 µM | COc1ccc(C2=NCC(CSc3nnc(-c4ccc5c(c4)OCO5)o3)S2)cc1 (stereo not given)
> 100 µM (inactive) | O=C(Nc1nccs1)c1ccccc1Cn1cc([N+](=O)[O-])cn1
32 µM | CC(=O)Nc1ccc(Nc2nccc(-c3cnn4ncccc34)n2)cc1C(F)(F)F
0.13 µM | Cc1cc(C)nc(N2CCC(N(Cc3cccnc3)C(=O)c3cccc(C#N)c3)CC2)n1
0.1 µM | O=S(=O)(c1ccccc1C(F)(F)F)N1CCN(Cc2ccc(-n3ccnc3)cc2)CC1
25 µM | Cc1nn(-c2ccccc2)nc1CNC(=O)CN(Cc1ccccn1)Cc1ccccn1
> 100 µM (inactive) | CN(C)c1ccc(N)cc1CN(CC1CCCO1)S(C)(=O)=O (stereo not given)
0.05 µM | CCCC(=O)N(Cc1ccccn1)c1nc2ccccc2s1
40 µM | NCc1ccc2c(Cl)cc(Cl)c(O)c2n1
6.3 µM | COc1ccc(NC(=O)c2ccc(NC(=O)CN(c3ccccc3C)S(C)(=O)=O)cc2)cc1
79 µM | Cc1[nH]nc(Nc2ccnc3[nH]ccc23)c1C
> 100 µM (inactive) | COCc1cc(Nc2ccc(Cl)cc2)nc(-c2ccccn2)n1
1.6 µM | COc1ccc(Oc2ccc(C(C)N(C)c3ncc4c(N)nc(N)nc4n3)cc2)cc1 (stereo not given)

Second part, the molecule before the results:

Structure (SMILES) | IC50
c1ccc(Nc2nc(-c3ccccn3)cc(N3CCOCC3)n2)cc1 | > 100 µM (inactive)
CC(Cn1ccnc1)NC(=O)C1CC1c1cccc(Cl)c1Cl (stereo not given) | 0.13 µM
Cn1c(CC(=O)NNC(=O)c2ccc3ccccc3n2)nc2ccccc21 | 32 µM
CCCn1c(NC(=O)Cc2ccc(Cl)cc2)nc2ccccc21 | > 100 µM (inactive)
Cc1ccc(CNC2CCN(C[C@@H]3Cn4c(=O)ccc5ccc(=O)n3c54)CC2)cc1F | > 100 µM (inactive)
O=C(NCC(c1cccnc1)N1CCc2ccccc2C1)C(=O)Nc1cccc(Cl)c1 (stereo not given) | 0.063 µM
O=C(CSc1ccc(-c2ccccn2)nn1)Nc1ccc(Cl)cc1 | > 100 µM (inactive)
Cc1nn(-c2nc3ccccc3s2)c2c1C(c1ccc(OCC(N)=O)cc1)SCC(=O)N2 (stereo not given) | > 100 µM (inactive)
O=C(Nc1n[nH]c(-c2ccccn2)n1)C1CC1c1ccccc1 (stereo not given) | > 100 µM (inactive)
Cc1c(C(C)NC(=O)Nc2cccc(Cl)c2)sc2ncnn12 (stereo not given) | 0.13 µM
CNc1nc(C)nc(N2CCc3cc(C(=O)NCc4ccc(-c5ccn[nH]5)cc4Cl)ccc32)n1 | 5 µM
O=C1OCc2ccc(Nc3nccc(-c4cnn5ncccc45)n3)cc21 | > 100 µM (inactive)
NC(=O)c1ccc(-c2cccc(OCCN3CCN(C4CCCCC4)CC3)c2)cc1 | 40 µM
O=S(=O)(NCC(c1cccnc1)N1CCN(c2ccc(F)cc2)CC1)c1cccs1 (stereo not given) | 0.04 µM
CC(=O)Nc1ccc(-c2ccnc(Nc3cccc(C#N)c3)n2)cc1 | 25 µM
COc1cc(C2SCC(=O)Nc3c2c(C)nn3-c2nc3ccccc3s2)cc(OC)c1O (stereo not given) | 5 µM
COc1cc(F)c2ncc(F)c(CCN3CC[C@H](NCc4cc5c(cn4)OCS5)[C@@H](O)C3)c2c1 | 32 µM
COc1cccc(CCNC(=O)C(c2cn[nH]c2)N2CCN(c3ccc(Cl)cc3)CC2)c1 (stereo not given) | 0.063 µM
COc1cccc(Nc2cc(C)nc(-c3ccccn3)n2)c1 | > 100 µM (inactive)
CCn1c(NC(=O)Cc2ccc(F)cc2)nc2ccccc21 | 25 µM
COc1cccc(CN(C)Cc2nc(N)c3c(C)c(C)sc3n2)c1 | > 100 µM (inactive)

Structure (SMILES) | IC50
COc1ccc(C(=O)NC2CCN(CCn3c(=O)ccc4ncc(F)cc43)CC2)cc1Cl | 16 µM
O=c1oc2ccccc2n1C1CCN(Cc2ccccc2-c2cccnc2)CC1 | 0.1 µM
CCC(=O)Nc1ccc(C(=O)Nc2ccccc2-c2ccccc2)cc1 | > 100 µM (inactive)
Cc1ccc(NC(=O)c2ccnc(N3CCCC3)c2)cc1-c1cc(C(N)=O)ccc1C | 4 µM
COCc1cnc2c(c1SCc1c(F)cccc1Cl)c(=O)n(C)c(=O)n2C | 25 µM
COc1ccc(Nc2nc(-c3ccccn3)cc(N3CCCC(O)C3)n2)cc1 (stereo not given) | 50 µM
COc1ccc(CN2CCCCC2c2nc(-c3cccnc3)no2)cc1 (stereo not given) | 0.2 µM
Cc1cc(NC(=O)C2CC2)ccc1OC1CCN(Cc2ccco2)CC1 | 63 µM
CC(C)N(C(=O)CN1C(=O)C(N)C(=O)N(c2ccccc2)c2ccccc21)c1ccccc1 (stereo not given) | 0.32 µM
CC(C)(C)C(=O)NCCc1csc(-c2ccc(F)cc2)n1 | 79 µM
CC(=Cc1ccccc1)CN1CCC(=O)N(Cc2cccnc2)CC1 | 0.1 µM
COc1ccc(Nc2nc(NC3CCC(O)CC3)ncc2Br)c(C(N)=O)c1 (stereo not given) | 13 µM
O=C1NCCn2ccc(Nc3nc(NC4CCC(O)CC4)ncc3Cl)c21 (stereo not given) | > 100 µM (inactive)
COc1cc(-c2noc(CC#N)n2)ccc1OC(F)F | 100 µM
CCN(Cc1ccncc1)Cc1ccc(NC(=O)c2cc(-c3ccc(F)cc3)n[nH]2)cc1 | 0.079 µM
Clc1ccc(C(CC2CCCCO2)Cn2cncn2)c(Cl)c1 (stereo not given) | 0.25 µM
COc1ccc(-c2cc(C)no2)cc1S(=O)(=O)Nc1ccc(C)c(C)c1 | 16 µM
Cn1nc(C(=O)N2CCc3ccccc32)c2c1CCS(=O)(=O)C2 | > 100 µM (inactive)
O=C(NCc1nnc2n1CCCCC2)c1csc(-c2ccccc2)n1 | > 100 µM (inactive)
O=C(Nc1ccc(-c2nc3ccccc3c(=O)[nH]2)cc1)c1cccs1 | > 100 µM (inactive)
O=C(c1ccc(O)c(Cl)c1)N1CCN(c2cnccn2)CC1 | > 100 µM (inactive)

Structure (SMILES) | IC50
COc1ccc(CNc2cc(C3CC3)nc(-c3nccn3C)n2)cc1 | 5 µM
O=c1[nH]c(NCCCNCc2cc(Br)cc(Br)c2)nc2ccsc12 | 32 µM
Cc1ccc(S(=O)(=O)Cn2nnnc2C(c2cccnc2)N2CCN(c3ccccc3)CC2)cc1 (stereo not given) | 0.2 µM
Cc1[nH]nc(C(F)(F)F)c1NC(=O)CCn1cc(Cl)c([N+](=O)[O-])n1 | > 100 µM (inactive)
COc1ccc(C(C)N(C)c2ncc3c(N)nc(N)nc3n2)cc1F (stereo not given) | > 100 µM (inactive)
CS(=O)(=O)c1cccc(CNC(=O)c2cncc(N3CCN(c4ccc(F)cc4)CC3)c2)c1 | 13 µM
CCN(CC)S(=O)(=O)c1ccc(Cn2nc(C(=O)Nc3ccncn3)c3ccccc32)cc1 | 0.16 µM
CC(C)n1c(-c2nonc2N)nc2cccc(OCCN3CCCC3)c21 | 40 µM
O=C(Nc1ccc(C(F)(F)F)cc1)NC1(C(=O)NCc2ccco2)CCCCC1 | > 32 µM (inactive)
CCOc1ccc(CN(C)Cc2nc(N)nc(Nc3ccc(C)cc3)n2)cc1 | 16 µM
O=C(NCCc1nc(-c2ccc(F)c(F)c2)n[nH]1)C1CCCCC1 | 25 µM
Cc1ccccc1NS(=O)(=O)c1ccc2[nH]cc(C(=O)NC3CCCC(C)C3C)c(=O)c2c1 (stereo not given) | 5 µM
O=C(Nc1ccc(C(F)(F)F)cc1)Nc1cccc([N+](=O)[O-])c1 | 6.3 µM
O=[N+]([O-])c1ccc(-c2nnn(-c3cccnc3)n2)o1 | 4 µM
Cc1[nH]n2c(=O)c3c(nc2c1-c1ccc(Br)cc1)CCCC3 | > 100 µM (inactive)
COc1ccc([N+](=O)[O-])cc1NC(=O)c1cc(Cl)ccc1O | > 100 µM (inactive)
O=c1cc(CSc2ccc(Cl)cc2)nc(-c2ccccn2)[nH]1 | 63 µM
COc1cc(-c2nc(N3CCOCC3)sc2-c2ccnc(NC3CCOCC3)n2)ccc1Cl | > 100 µM (inactive)
O=C(CCCNC(=O)c1ccc(Cl)cc1)Nc1nc(-c2ccccn2)cs1 | 3.2 µM
Cc1nc(C(=O)Nc2ccc3c(c2)OCO3)nn1-c1ccc(Cl)cc1 | 32 µM
COc1ccc(-c2cnc(NC(=O)c3cc(-c4ccccn4)n[nH]3)n2C)cc1 | 16 µM
